In brackets after ≈: the same amount, converted by molar mass. Activity calls are given as the source filed them. The calls are words filed in the database; no cut-off is given here.
Tests used:
[1] = test system: Candida albicans; experiment: Antifungal activity against fluconazole-resistant Candida albicans CaR assessed as reduction in fungal growth incubated for 72 hrs by broth microdilution method; format: functional
[2] = test system: Candida albicans; experiment: Induction of apoptosis in Candida albicans ATCC SC5314 assessed as necrotic cells by V-FITC/PI staining based flow cytometric analysis (reference value: 2.74%); format: functional
[3] = test system: Candida albicans; experiment: In vivo antifungal activity against Candida albicans 901 infected in mouse model assessed as increase in CD4positive expression level in presence of 1-MT; format: functional, organism-based
[4] = Toxicity in mouse infected with Candida albicans 901 assessed as change in AST level (reference value: 76.1 +/-4.2 IU/L); conditions: in vivo
[5] = test system: Candida albicans; experiment: (§1) In vivo antifungal activity against Candida albicans 901 infected in mouse model assessed as body weight gain at 5 microg/g, iv pre-infected with fungi by intravenous injection followed by compound administration and measured on day 8 in presence of BPE; format: functional, organism-based; conditions: dose 5.0 µg/g, time 8.0 day
[6] = test system: Aspergillus fumigatus; experiment: Antifungal activity against Aspergillus fumigatus KM 8001 assessed as fungal growth inhibition incubated for 72 hrs by broth microdilution method; format: functional
[7] = Toxicity in mouse infected with Candida albicans 901 assessed as change in CRE level in presence of 1-MT (reference value: 21.5 +/-1.7 umol/L); conditions: in vivo
[8] = test system: Candida albicans; experiment: as §1, with “decrease in IFN-gamma protein expression level” for “body weight gain”, “1-MT by Western blotting analysis” for “BPE”; format: functional, organism-based; conditions: dose 5.0 µg/g, time 8.0 day
[9] = test system: Candida albicans; experiment: Fungicidal activity against Candida albicans ATCC SC5314 assessed as live cells (reference value: 92%); format: functional
[10] = test system: Candida albicans; experiment: In vivo antifungal activity against Candida albicans 901 infected in mouse model assessed as increase in CD4positive expression level in presence of BPE; format: functional, organism-based
[11] = test system: Candida albicans; experiment: as §1, with “decrease in IL-2 protein expression level” for “body weight gain”, “BPE by Western blotting analysis” for “BPE”; format: functional, organism-based; conditions: dose 5.0 µg/g, time 8.0 day
[12] = test system: Candida albicans; experiment: Induction of apoptosis in Candida albicans ATCC SC5314 assessed as viable cells by V-FITC/PI staining based flow cytometric analysis (reference value: 93.3%); format: functional
[13] = Toxicity in mouse infected with Candida albicans 901 assessed as change in CRE level (reference value: 21.5 +/-1.7 umol/L); conditions: in vivo
[14] = Toxicity in mouse infected with Candida albicans 901 assessed as change in AST level in presence of 1-MT (reference value: 76.1 +/-4.2 IU/L); conditions: in vivo
[15] = test system: Candida albicans; experiment: as §1, with “reduction in genetic material content in lung” for “body weight gain”, “1-MT by H and E staining based analysis” for “BPE”; format: functional, organism-based; conditions: dose 5.0 µg/g, time 8.0 day
[16] = Inhibition of chitin synthase extracted from Candida tropicalis ATCC 1369 using UDP-GlcNAc as substrate incubated for 1 hrs
[17] = Toxicity in mouse infected with Candida albicans 901 assessed as change in BUN level in presence of BPE (reference value: 11.4 +/-1.5 mmol/L); conditions: in vivo
[18] = Toxicity in mouse infected with Candida albicans 901 assessed as change in ALT level in presence of 1-MT (reference value: 42.8 +/-3.9 IU/L); conditions: in vivo
[19] = test system: Candida albicans; experiment: Antifungal activity against fluconazole-resistant Candida albicans 904 assessed as reduction in fungal growth incubated for 72 hrs by broth microdilution method; format: functional

In the case of `O=C(CNC(=O)c1nc2ccc(Cl)cc2c(=O)[nH]1)NCC(=O)c1ccccc1`, the MIC50 [1] is reported as 2 µg/mL (≈ 5.01 µM), the Activity [2] is reported as 15.9% and the Activity [3] is reported as “Active”. For the same compound, the Activity [4] was 63.9 IU/L, the Activity [5] was “Active” and the MIC50 [6] was 2 µg/mL (≈ 5.01 µM). The Activity [7] was 20.8 µmol/L, the Activity [8] was “Active” and the Activity [9] was 3%. For the same compound, the Activity [10] was “Active”, the Activity [11] was “Active” and the Activity [12] was 57.1%. The Activity [13] was 18.7 µmol/L, the Activity [14] was 74.6 IU/L and the Activity [15] was “Active”. The IC50 [16] was 14.7 µM, the Activity [17] was 9.5 mmol/L and the Activity [18] was 40.2 IU/L. The MIC50 [19] was 4 µg/mL (≈ 10 µM).

Source: ChEMBL document CHEMBL6103585, “Construction and activity evaluation of novel CHS inhibitors against fungal infections” (Eur J Med Chem, 2025)
